Data as given in the NIST ThermoML archive (doi:10.1021/acs.jced.7b00201).

Columns and labels:
[1] = 100 kPa, Liquid; for viscosity: Falling or rolling sphere viscometry; for mass density: Vibrating tube method
[2] = xn = mol fraction of the nth substance listed; conditions: 100 kPa, Liquid; for viscosity: Falling or rolling sphere viscometry; for mass density: Vibrating tube method

CCCCC1CCCCC1 [butylcyclohexane]
[1]
Conditions | mass density [kg/m3] | viscosity [mPa·s]
293.15 K | 799.34 | 1.305
298.15 K | 795.59 | 1.202
303.15 K | 791.84 | 1.112
308.15 K | 788.07 | 1.033
313.15 K | 784.3 | 0.963
318.15 K | 780.52 | 0.901
323.15 K | 776.74 | 0.844
328.15 K | 772.93 | 0.794
333.15 K | 769.13 | 0.749
338.15 K | 765.3 | 0.708
343.15 K | 761.47 | 0.67

CCCCC1CCCCC1 [butylcyclohexane] + OCC1CC1
[2], x2 = 0
Conditions | mass density [kg/m3] | viscosity [mPa·s]
293.15 K | 799.34 | 1.305
298.15 K | 795.59 | 1.202
303.15 K | 791.84 | 1.112
308.15 K | 788.07 | 1.033
313.15 K | 784.3 | 0.963
318.15 K | 780.52 | 0.901
323.15 K | 776.74 | 0.844
328.15 K | 772.93 | 0.794
333.15 K | 769.13 | 0.749
338.15 K | 765.3 | 0.708
343.15 K | 761.47 | 0.67

OCC1CC1 [cyclopropylmethanol]
[1]
Conditions | mass density [kg/m3] | viscosity [mPa·s]
293.15 K | 912.99 | 4.029
298.15 K | 908.94 | 3.485
303.15 K | 904.85 | 3.037
308.15 K | 900.74 | 2.661
313.15 K | 896.58 | 2.344
318.15 K | 892.38 | 2.074
323.15 K | 888.13 | 1.843
328.15 K | 883.84 | 1.646
333.15 K | 879.49 | 1.476
338.15 K | 875.07 | 1.328
343.15 K | 870.62 | 1.201

CCCCCCCCCCCC [dodecane]
[1]
Conditions | mass density [kg/m3] | viscosity [mPa·s]
293.15 K | 748.83 | 1.481
298.15 K | 745.23 | 1.355
303.15 K | 741.6 | 1.244
308.15 K | 737.97 | 1.151
313.15 K | 734.33 | 1.066
318.15 K | 730.68 | 0.992
323.15 K | 727.01 | 0.926
328.15 K | 723.35 | 0.867
333.15 K | 719.67 | 0.814
338.15 K | 715.98 | 0.765
343.15 K | 712.28 | 0.724

CCCCCCCCCCCC [dodecane] + CCCCC1CCCCC1
[2], x1 = 1
Conditions | mass density [kg/m3] | viscosity [mPa·s]
293.15 K | 748.83 | 1.481
298.15 K | 745.23 | 1.355
303.15 K | 741.6 | 1.244
308.15 K | 737.97 | 1.151
313.15 K | 734.33 | 1.066
318.15 K | 730.68 | 0.992
323.15 K | 727.01 | 0.926
328.15 K | 723.35 | 0.867
333.15 K | 719.67 | 0.814
338.15 K | 715.98 | 0.765
343.15 K | 712.28 | 0.724

CCCCCCCCCCCC [dodecane] + OCC1CC1
[2], x2 = 0
Conditions | mass density [kg/m3] | viscosity [mPa·s]
293.15 K | 748.83 | 1.481
298.15 K | 745.23 | 1.355
303.15 K | 741.6 | 1.244
308.15 K | 737.97 | 1.151
313.15 K | 734.33 | 1.066
318.15 K | 730.68 | 0.992
323.15 K | 727.01 | 0.926
328.15 K | 723.35 | 0.867
333.15 K | 719.67 | 0.814
338.15 K | 715.98 | 0.765
343.15 K | 712.28 | 0.724
